Data: patent publication US6440672B1, “Compositions and methods for the inhibition of MUC-5 mucin gene expression” (The Regents of the University of California, priority 1998, dated 2002)

What was measured:
[1] = system: MUC 5AC 5' regulatory region (M4-2 luciferase reporter gene construct) in HM3 cells; test: Inhibition of smoke-induced luciferase activity in HM3 cells transfected with M4-2 reporter construct; assay type: cell-based, human
Excerpt: A DNA fragment extending from −3752 bp to +68 bp was cloned into the MluI/Smal site of the pGL3 vector (Promega). pGL3 contains a luciferase gene downstream from the Smal site. This construct, referred to as M4-2, was deposited with the American Type Culture Collection as ATCC designation 98701. M4-2 was co-transfected with pcDNA3, containing the neomycin resistance gene, into the epithelial cell line HM3. G418-selected colonies were pooled, expanded, and used in luciferase assays.
HM3 colon carcinoma cells (Kuan, et al. (1987) Cancer Res. 47:5715-5724) or NCIH292 lung carcinoma cells (Levine, et al. (1995) Am. J Respir. Disease 12:196-204) were transfected with the 4.0 Kb MUC 5AC reporter gene construct, M4-2, or the −614 construct from Example 2. Transfection was carried out essentially as described in Felgner et al. (1987), supra. In brief, 2 μl lipofectamine and 1 μg DNA were added to, approximately 5×10^6 cells in 100 μl of Optimen (Gibco) and incubated at room, temperature for about 30 minutes. The mixture was then diluted to 1 ml and added to one culture well of a 6 well plate. G418-selected colonies were pooled, expanded and used in luciferase assays.
Environmental tobacco smoke was used as a mucomone. Culture medium DME-F 12 (Dulbecco's Modified Eagle's:Haam's F12 at 1:1) was exposed to tobacco smoke at various concentrations, for 6 hours. Exposure of the medium was carried out in open culture dishes in an enclosed container into which tobacco smoke produced by burning cigarettes was introduced in a controlled manner. Smoke concentration was measured in units of total suspended particles/ml (TSP/ml). Transfected cells were transferred into the smoke-exposed medium (in 6-well plates, 5×10^5 cells per well) and incubated for various times. The cells were then harvested, lysed and the luciferase activity determined as described in Li et al. (1997).
Several possible inhibitors of mucomone-induced mucin production were tested for their effect on the smoke induced luciferase activity described in Example 3. Inhibitors tested included the inhibitors Genistein (Calbiochem), anti-MEK (PD98059; Alessi et al. 1995), PKC-I (Bisindolymaleimide) and PKA-l (KT 5720, Calbiochem). HM3 cells transfected with the 4.0 KB MUC 5AC construct, M4-2, were incubated in smoke-exposed medium as described in Example 3. The inhibitors were added to the cells at the concentrations indicated in Table 2 for various times before the cells were transferred to the smoke medium. Additional inhibitor was added to the smoke medium after the cells were transferred.

[2] = system: MUC 2 gene transcription in epithelial cells; details: epithelial cells pre-incubated with inhibitor; cited from earlier work

In the case of `CN(C)CCCn1cc(C2=C(c3c[nH]c4ccccc34)C(=O)NC2=O)c2ccccc21` [Bisindolymaleimide], the “relative luciferase activity (RLA) induced by smoke medium, with vs without inhibitor” value ([1]; Bisindolymaleimide 2.5 nM to 10 nM, added 1 hr before smoke medium) is reported as “lower”.
In the case of `O=c1c(-c2ccc(O)cc2)coc2cc(O)cc(O)c12` [Genistein], the “relative luciferase activity (RLA) induced by smoke medium, with vs without inhibitor” value ([1]; Genistein 30 μM, added 30 min-2 hr before smoke medium) is listed as “lower” and the “effect of pre-incubation on the PA LPS-induced increase in MUC 2 transcription” value [2] is listed as “abolished the increase in transcription”.
For `CCCCCCOC(=O)[C@]1(O)C[C@@H]2O[C@@]1(C)n1c3ccccc3c3c4c(c5c6ccccc6n2c5c31)C(=O)NC4` [KT 5720], the “relative luciferase activity (RLA) induced by smoke medium, with vs without inhibitor” value ([1]; KT 5720 0.1 to 0.5 μM, added 15 min-1 hr before smoke medium) was “lower”.
With `COc1cccc(-c2cc(=O)c3ccccc3o2)c1N` [PD98059] the “relative luciferase activity (RLA) induced by smoke medium, with vs without inhibitor” value ([1]; PD98059 50-100 μM, added 1 hr before smoke medium) was “lower”.
